Laboratory results published in patent publication US6136797A, “Phospholipid derivatives of phosphono-carboxylic acids, the production of said derivatives and the use of said derivatives as antiviral medicaments” (priority 1995, dated 2000).
Values after ≈ are worked out from the molar mass of the structure shown. Where a name gives a salt, the structure may show the parent alone.

Columns and labels:
[1] = tested on: bone marrow stem cells of the granulocytic/monocytic series; assay: Bone marrow toxicity in vitro (CFU-GM assay); conditions: for toxicity on bone marrow stem cells of the granulocytic/monocytic series: in words, up to the highest tested concentration of 100 μg/ml
[2] = tested on: Murine Cytomegaly Virus (MCMV); assay: Murine Cytomegaly Virus (MCMV) model, survival rate; assay type: in vivo, female Balb/c mice; conditions: 8×10^5 PFU i.p.; oral bioavailability model; drug dose not given
Description: Female Balb/c mice were treated i.p. with a dose of 8×10^5 PFU (plaque forming units).

[3] = due to similarity to pyrophosphate by accumulation in bones; cited from earlier work
[4] = tested on: HSV 1 and 2, influenza, HBV, VZV, EBV as well as retroviral infections; conditions: cited from earlier work
bone marrow = conditions: AIDS patients; cited from earlier work
[5] = Stability (in the investigations and during production); assay type: physicochemical; conditions: in the investigations and during production / under the same conditions

Compound | IC50 ([1]; Mus musculus, CFU-GM) | toxicity on bone marrow stem cells of the granulocytic/monocytic series [1] | also measured
N.N.[Cl][Pt][Cl] [Cis-DDP (Cisplatin), Cisplatin] | – | – | IC50 ([1]; CFU-GM assay, mean value±SEM, number of experiments in parentheses, highest tested concentration 100 μg/ml): 0.45 ± 0.11 µg/mL
O=C(O)P(=O)(O)O [phosphonoformic acid] | > 100 µg/mL | – | survival rate of the animals (rank order) [2]: untreated<Foscarnet treated<DMDOP-PFA treated<DMDOP-PFA-OMe; toxicity [3]: toxic
COc1cccc2c1C(=O)c1c(O)c3c(c(O)c1C2=O)C[C@@](O)(C(=O)CO)C[C@@H]3O[C@H]1C[C@H](N)[C@H](O)[C@H](C)O1 [Doxorubicin] | 0.046 ± 0.007 µg/mL (≈ 0.0846 µM) | – | –
CCCCCCCCCCCCSCC(COP(=O)(O)C(=O)O)OCCCCCCCCCC (racemic) [DMDOP-PFA, R,S-(3-Dodecylmercapto-2-decyloxy)-propoxy-hydroxy-phosphinyl-formic acid di-sodium salt] | > 100 µg/mL | no toxicity | survival rate of the animals (rank order) [2]: untreated<Foscarnet treated<DMDOP-PFA treated<DMDOP-PFA-OMe
CCCCCCCCCCCCCCCCCCOCC(O)COP(=O)(O)C(=O)O (stereo not drawn) [OOHP-PFA, (3-octadecyloxy-2-hydroxy)-propoxy-hydroxy-phosphinylformic acid] | 94.5 µg/mL (≈ 209 µM) | more toxic than DMDOP-PFA and DMDOP-PAA | –
O=C(O)CP(=O)(O)O [phosphonoacetic acid] | 62.9 µg/mL (≈ 449 µM) | more toxic than DMDOP-PFA and DMDOP-PAA | antiviral activity [4]: good antiviral activity; toxicity [3]: toxic
Cc1cn([C@H]2C[C@H](N=[N+]=[N-])[C@@H](CO)O2)c(=O)[nH]c1=O [3'-azido-3'-deoxythymidine, 3'-Azido-3'-deoxythymidine] | – | – | treated patients needing blood transfusions due to toxic side effects on the bone marrow (bone marrow): about 50%
CCCCCCCCCCCCSCC(COP(=O)(O)C(=O)OC)OCCCCCCCCCC (racemic) [DMDOP-PFA-OMe, R,S-(3-dodecylmercapto-2-decyloxy)propoxy-hydroxy-phosphinylformic acid methyl ester] | – | – | survival rate of the animals (rank order) [2]: untreated<Foscarnet treated<DMDOP-PFA treated<DMDOP-PFA-OMe
CCCCCCCCCCCCSCC(COP(=O)(O)CC(=O)O)OCCCCCCCCCC (racemic) [DMDOP-PAA, R,S-(3-dodecylmercapto-2-decyloxy)-propoxy-hydroxy-phosphinyl acetic acid di-sodium salt] | > 100 µg/mL | no toxicity | –
CCCCCCCCCCCCCCCCCCOCC(O)COP(=O)(O)C(=O)OCC (stereo not drawn) [OOHP-PFAE, (3-octadecyloxy-2-hydroxy)-propoxy-hydroxy-phosphinylformic ethyl ester] | 59.4 µg/mL (≈ 123 µM) | more toxic than DMDOP-PFA and DMDOP-PAA | –
CCCCCCCCCCCCCCCCCCOC[C@@H](O)COP(=O)(O)C(=O)O [batylphosphonoformate, 1-O-octadecyl-sn-glycero-3-phosphono-formate] | – | – | stability [5]: unstable
